Results reported in patent US8455474B2, “Method for treating tuberculosis” (Mackay Memorial Hospital, priority 2011, dated 2013).

Tests used:
[1] = test system: Mycobacterium tuberculosis; test: Killing kinetics in vitro (7H9 broth OD600, CFU on 7H11 agar); format: cell-based
Experimental: Mycobacterium tuberculosis strains were obtained from the culture collection of the Mycobacteriology Laboratory, Mackay Memorial Hospital, Taipei, Taiwan. The organisms were cultured on Lowenstein-Jensen medium slant at 37° C. in a 10% CO2 humidified atmosphere. In mid-log phase, the colonies were harvested and resuspended with PBS. The turbidity of suspension was adjusted to a McFarland 0.5 standard, containing approximately 1×10^8 bacteria/ml.
Strains were grown in 7H9 medium and the turbidity of suspension was adjusted to a McFarland 0.5 standard and used as inocula after ten-fold dilution in 7H9 medium with or without various concentrations of EZETIMIBE. The kinetics of bactericidal effect of EZETIMIBE was estimated by measuring the optical density at 600 nm at the indicated time points, followed by plating for colony formation unit (CFU) enumeration on 7H11 agar plates.

[2] = test system: M. tuberculosis internalization into monocytes; test: Internalization of M. tuberculosis by monocytes (flow cytometry); format: cell-based, Mycobacterium tuberculosis
Experimental: (§1) Peripheral blood mononuclear cells were isolated from whole blood by means of Ficoll-Paque gradient centrifugation. Monocytes were incubated with CD14 microbeads, after which the CD14-positive cells were separated out by a magnet. These cells were seeded in U-bottom 96-well plates at a density of 2×10^5 cells in a volume of 200 μl of PRMI-1640 medium with 10% FCS and cultured for 1 hour in the presence or absence of EZETIMIBE (resolved in alcohol). Next, 5×10^5 M. tuberculosis bacteria were added to each well, followed by incubation for 24 hours. Cell viability was tested by using trypan blue staining. In the post-treatment experiment, monocytes were infected with M. tuberculosis bacteria for 1 hour and then added with EZETIMIBE for another 24 hours. In the cholesterol supplement experiment, water soluble cholesterol (Sigma) was resolved in sterile deionized water and added into the culture medium with or without EZETIMIBE.
Infected monocytes described above receiving either EZETIMIBE or control were washed with PBS to remove unbound bacteria and fixed with 4% formalin for 24 hours at 4° C. Then cells were permeabilized by using permeabilization buffer and stained with fluorescein isothiocyanate-conjugated anti-M. tuberculosis antibody for 1 hour at 4° C. The fluorescence intensity of intracellular M. tuberculosis was than analyzed by flow cytometry. Stained cells were evaluated by FACS Calibur flow cytometer (BD Bioscience). Analysis was performed using CellQuest software (BD Bioscience).
As shown in FIGS. 2A-2D, the experiments were performed to assess whether the treatment of EZETIMIBE affected M. tuberculosis internalization into monocytes, and the monocytes were pretreated with EZETIMIBE for 24 hours or 48 hours.

[3] = test system: intracellular M. tuberculosis in monocytes; test: Intracellular survival of M. tuberculosis in monocytes (CFU assay); format: cell-based, Mycobacterium tuberculosis
[4] = biological target: T1, CD13 (Homo sapiens, UniProt P15144); test: CD13 expression on monocytes (antiCD13 antibody staining); format: cell-based; settings: monocytes pretreated 24 or 48 hours, clones WM15 and WM47
T1 construct: whether the treatment of EZETIMIBE affected CD13 expression on monocytes; endogenous in cells; host or cells: monocytes
T1 sequence (P15144 whole entry): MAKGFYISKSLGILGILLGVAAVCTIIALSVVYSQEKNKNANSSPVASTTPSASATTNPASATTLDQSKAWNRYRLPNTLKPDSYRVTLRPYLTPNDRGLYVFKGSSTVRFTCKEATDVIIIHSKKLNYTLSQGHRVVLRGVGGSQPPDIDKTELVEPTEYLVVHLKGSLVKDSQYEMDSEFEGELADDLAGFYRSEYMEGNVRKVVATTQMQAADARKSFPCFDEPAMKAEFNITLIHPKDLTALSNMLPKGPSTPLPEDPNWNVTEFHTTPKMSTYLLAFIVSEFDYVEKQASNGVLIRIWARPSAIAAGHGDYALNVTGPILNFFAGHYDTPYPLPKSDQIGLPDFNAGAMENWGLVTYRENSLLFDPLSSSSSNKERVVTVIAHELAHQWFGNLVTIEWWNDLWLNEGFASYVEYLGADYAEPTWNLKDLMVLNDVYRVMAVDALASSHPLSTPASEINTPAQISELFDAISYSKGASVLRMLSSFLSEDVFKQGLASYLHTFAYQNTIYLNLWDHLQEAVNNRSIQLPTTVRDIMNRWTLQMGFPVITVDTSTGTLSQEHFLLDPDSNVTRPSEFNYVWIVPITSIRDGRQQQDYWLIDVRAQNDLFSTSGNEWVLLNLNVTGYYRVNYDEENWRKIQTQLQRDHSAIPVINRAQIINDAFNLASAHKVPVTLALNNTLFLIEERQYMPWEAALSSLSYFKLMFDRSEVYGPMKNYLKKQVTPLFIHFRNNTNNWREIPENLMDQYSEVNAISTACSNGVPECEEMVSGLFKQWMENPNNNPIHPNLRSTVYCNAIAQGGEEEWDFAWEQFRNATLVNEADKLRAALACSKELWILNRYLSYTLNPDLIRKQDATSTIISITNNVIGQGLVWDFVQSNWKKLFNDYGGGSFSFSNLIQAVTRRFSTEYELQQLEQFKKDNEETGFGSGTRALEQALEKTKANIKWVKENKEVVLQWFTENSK

[5] = test system: monocytes; test: Cholesterol uptake of monocytes (nile red staining, flow cytometry); format: cell-based; settings: cholesterol supplement 10 μg/ml
Experimental: as §1
A stock solution of nile red (1 mg/ml) in acetone was prepared and stored at 4° C. and protected from light. The nile red solution was added to the cell preparation (final concentration: 1 μg/ml) for 10 minutes and excess dye was washed away with PBS. Nile red fluorescence was examined at two spectral settings, yellow-gold fluorescence (FL1 channel, excitation, 488 nm; emission, 530±30 nm) for cytoplasmic neutral lipids and red fluorescence (FL2 channel, excitation, 488 nm; emission, 585±21 nm) for polar lipids, consist of phospholipids, other amphipathic lipids, and strongly hydrophobic proteins of cell membranes as reported. Stained cells were evaluated by FACS Calibur flow cytometer (BD Bioscience). Analysis was performed using CellQuest software (BD Bioscience).
As shown in FIGS. 5A-B, monocytes were infected with M. tuberculosis bacteria followed by treatment with EZETIMIBE for 24 hours. Nile red staining was used to assess the intracellular lipid droplets by flow cytometry. Nile red fluorescence was examined at two spectral settings, yellow-gold fluorescence (FL1 channel, excitation, 488 nm; emission, 530±30 nm) for cytoplasmic neutral lipids, included triglyceride, cholesterol, cholesterol esters and free fatty acid, and red fluorescence (FL2 channel, excitation, 488 nm; emission, 585±21 nm) for polar lipids. Significant increase fluorescence intensity of FL1 channel not FL2 channel was observed following cholesterol supplement (10 μg/ml) in monocytes culture without infection, and EZETIMIBE (10 μg/ml and 20 μg/ml) can inhibit the uptake of cholesterol by reducing the relative fluorescence of FL1 channel from 1.5 to 1.2 and 1.3, respectively.

[6] = test system: intracellular M. tuberculosis in monocytes; test: Intracellular survival of M. tuberculosis in monocytes with cholesterol supplement (CFU assay); format: cell-based, Mycobacterium tuberculosis; settings: post-treatment 24 hours

## O=C1[C@H](CC[C@H](O)c2ccc(F)cc2)[C@@H](c2ccc(O)cc2)N1c1ccc(F)cc1 [EZETIMIBE, (3R,4S)-1-(4-fluorophenyl)-3-[(3S)-3-(4-fluorophenyl)-3-hydroxypropyl]-4-(4-hydroxyphenyl)zetidin-2-one]
[1]; 15 and 30 μg/ml for 72 hours, read at 3rd week (FIG. 1C)
  colony-forming units (CFU) of Mycobacterium tuberculosis on 7H11 agar plate: significantly reduced
[1]; FIG. 1B
  M. tuberculosis survival in suspension with increasing amount of bacteria: inhibition on M. tuberculosis survival was found
[1]; increasing concentrations, 2nd and 3rd week (FIG. 1A)
  growth of Mycobacterium tuberculosis in 7H9 broth: inhibition effect on growth
[2]; post-treatment of monocytes, 24 hours
  entry reduction of M. tuberculosis into monocytes: up to 0.65%
[2]; post-treatment of monocytes, 48 hours
  entry reduction of M. tuberculosis into monocytes: ≤ 26.02%
[2]; pre-treatment of monocytes, 48 hours
  entry reduction of M. tuberculosis into monocytes: up to 18.28%
[3]; post-treatment: infection 1 hour then 10 ng/ml for 24 hours, without drug 8320
  CFU counts: 4090 per 10,000 cells
[3]; post-treatment: infection 1 hour then 20 ng/ml for 24 hours, without drug 8320
  CFU counts: 2858 per 10,000 cells
[3]; pre-treatment 1 hour then infection 24 hours, 10 ng/ml, without drug 7358
  CFU counts: 5880 per 10,000 cells
[3]; pre-treatment 1 hour then infection 24 hours, 20 ng/ml, without drug 7358
  CFU counts: 4000 per 10,000 cells
[4]
  CD13 expression on monocytes: down-regulation of CD13 expression
[5]; M. tuberculosis infected monocytes, 24 hours, EZETIMIBE 10 μg/ml, without drug 1.4
  relative fluorescence of FL1 channel (nile red, neutral lipids): 0.9
[5]; M. tuberculosis infected monocytes, 24 hours, EZETIMIBE 20 μg/ml, without drug 1.4
  relative fluorescence of FL1 channel (nile red, neutral lipids): 1.0
[5]; monocytes without infection, EZETIMIBE 10 μg/ml, without drug 1.5
  relative fluorescence of FL1 channel (nile red, neutral lipids): 1.2
[5]; monocytes without infection, EZETIMIBE 20 μg/ml, without drug 1.5
  relative fluorescence of FL1 channel (nile red, neutral lipids): 1.3
[6]; EZETIMIBE 10 μg/ml, cholesterol supplement 10 μg/ml, without drug 10600
  CFU counts: 7692 per 10,000 cells
[6]; EZETIMIBE 10 μg/ml, cholesterol supplement 20 μg/ml
  CFU counts: 12545 per 10,000 cells
[6]; EZETIMIBE 20 μg/ml, cholesterol supplement 10 μg/ml, without drug 10600
  CFU counts: 4800 per 10,000 cells
[6]; EZETIMIBE 20 μg/ml, cholesterol supplement 20 μg/ml
  CFU counts: 10333 per 10,000 cells
